This passage reports Ki results from patent US8119681B2, “2-[1-phenyl-5-hydroxy or methoxy-4alpha-methyl-hexahydrocyclopenta [ƒ]indazole-5-YL]ethyl phenyl derivatives as glucocorticoid receptor ligands” (Merck Sharp & Dohme Corp., priority 2006, dated 2012).

The experiment addresses T1, glucocorticoid receptor (GR) (Homo sapiens, UniProt P04150).
T1 construct: endogenous in cells; host or cells: HeLa (ATCC) cell lysate supernatant
T1 sequence (P04150 1-777): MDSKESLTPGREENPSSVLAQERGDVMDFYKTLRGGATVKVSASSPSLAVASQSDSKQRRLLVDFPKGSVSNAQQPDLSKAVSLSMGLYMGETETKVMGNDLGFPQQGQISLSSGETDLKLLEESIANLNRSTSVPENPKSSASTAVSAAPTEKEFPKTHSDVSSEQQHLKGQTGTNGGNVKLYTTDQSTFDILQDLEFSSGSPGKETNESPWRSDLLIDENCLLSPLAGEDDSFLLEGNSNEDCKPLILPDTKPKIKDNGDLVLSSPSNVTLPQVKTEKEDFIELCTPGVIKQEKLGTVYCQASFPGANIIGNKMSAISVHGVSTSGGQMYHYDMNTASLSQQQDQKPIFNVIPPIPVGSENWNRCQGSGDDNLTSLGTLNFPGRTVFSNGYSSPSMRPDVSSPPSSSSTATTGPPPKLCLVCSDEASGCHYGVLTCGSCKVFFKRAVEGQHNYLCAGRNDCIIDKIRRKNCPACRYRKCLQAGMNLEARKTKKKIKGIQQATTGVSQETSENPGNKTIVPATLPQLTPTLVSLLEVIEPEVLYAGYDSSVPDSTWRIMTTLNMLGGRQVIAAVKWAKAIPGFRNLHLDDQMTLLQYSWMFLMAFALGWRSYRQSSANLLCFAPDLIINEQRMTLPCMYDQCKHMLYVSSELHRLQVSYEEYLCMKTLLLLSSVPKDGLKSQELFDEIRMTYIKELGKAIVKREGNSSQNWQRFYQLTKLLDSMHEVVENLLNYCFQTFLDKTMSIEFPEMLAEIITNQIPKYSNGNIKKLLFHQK
As to the kind of experiment: Ligand binding assay (GR BIND), 3H-dexamethasone displacement, HeLa cell lysate. On the procedure:
Binding Buffer: TEGM (10 mM Tris-HCl, 1 mM EDTA, 10% glycerol, 1 mM beta-mercaptoethanol, 10 mM Sodium Molybdate, pH 7.2)
50% HAP Slurry: Calbiochem Hydroxylapatite, Fast Flow, in 10 mM Tris, pH 8.0 and 1 mM EDTA.
Wash Buffer: 40 mM Tris, pH7.5, 100 mM KCl, 1 mM EDTA and 1 mM EGTA.
Dexmethasone-methyl-^3H, (DEX*); (Amersham cat# TRK645)
Dexamethasone (DEX) (Sigma, cat# D1756):
Phenol red-free Trypsin-EDTA is diluted in the same PBS 1:10. The cell layers are rinsed with 1× Trypsin, extra Trypsin is poured out, and the cell layers are incubated at 37° C. for ˜2 min. The flask is tapped and checked for signs of cell detachment. Once the cells begin to slide off the flask, the complete media is added. The cells are counted at this point, then diluted to the appropriate concentration and split into flasks or dishes for further culturing (Usually 1:3 to 1:6 dilution).
Preparation of Hela Cell Lysate
The cell pellet is washed twice with TEGM (10 mM Tris-HCl, 1 mM EDTA, 10% glycerol, 1 mM beta-mercaptoethanol, 10 mM Sodium Molybdate, pH 7.2). After the final wash, the cells are resuspended in TEGM at a concentration of 10^7 cells/mL. The cell suspension is snap frozen in liquid nitrogen or ethanol/dry ice bath and transferred to −80° C. freezer on dry ice. Before setting up the binding assay, the frozen samples are left on ice-water to just thaw (˜1 hr). Then the samples are centrifuged at 12,500 g to 20,000 g for 30 min at 4° C. The supernatant is used to set-up assay right away. If using 50 μL of supernatant, the test compound can be prepared in 50 μL of the TEGM buffer.
Procedure for Multiple Compound Screening
1×TEGM buffer is prepared, and the isotope-containing assay mixture is prepared in the following order: EtOH (2% final concentration in reaction), 3H-DEX (Amersham Biosciences) and 1×TEGM. [e.g. For 100 samples, 200 μL (100×2) of EtOH+4.25 μL of 1:10 ^3H-Dex stock+2300 μL (100×23) 1×TEGM]. The compound is serially diluted, e.g., if starting final conc. is 1 μM, and the compound is in 25 μL of solution, for duplicate samples, 75 μL of 4×1 μM solution is made and 3 μL of 100 μM is added to 72 μL of buffer, and 1:5 serial dilution.
25 μL of ^3H-DEX (6 nM) trace and 25 μL compound solution are first mixed together, followed by addition of 50 μL receptor solution. The reaction is gently mixed, spun briefly at about 200 rpm and incubated at 4° C. overnight. 100 μL of 50% HAP slurry is prepared and added to the incubated reaction which is then vortexed and incubated on ice for 5 to 10 minutes. The reaction mixture is vortexed twice more to resuspend HAP while incubating reaction. The samples in 96-well format are then washed in wash buffer using The FilterMate™ Universal Harvester plate washer (Packard). The washing process transfers HAP pellet containing ligand-bound expressed receptor to Unifilter-96 GF/B filter plate (Packard). The HAP pellet on the filter plate is incubated with 50 μL of MICROSCINT (Packard) scintillant for 30 minutes before being counted on the TopCount microscintillation counter (Packard). IC50s are calculated using DEX as a reference.

Where [1] appears, read: Table 1, HeLa cell lysate, 3H-DEX.
[2] abbreviates: Table 2, prior-art comparison compounds.

For orientation: Ki means the dissociation constant of the complex between target and ligand, obtained from inhibition or displacement.

Under setting [1], `CC(C)NC(=O)c1ccccc1CC[C@]1(O)CCC2=Cc3c(cnn3-c3ccc(F)cc3)C[C@@]21C` [Example 35, 2-{2-[(4αS,5R)-1-(4-fluorophenyl)-5-hydroxy-4α-methyl-1,4,4α,5,6,7-hexahydrocyclopenta[f]indazol-5-yl]ethyl}-N-isopropylbenzamide] gave a Ki of 3.55 nM.
On to `C[C@]12Cc3cnn(-c4ccc(F)cc4)c3C=C1CC[C@@]2(O)CCc1ccccc1C(=O)NCC1CC1` [Example 37, N-(cyclopropylmethyl)-2-{2-[(4αS,5R)-1-(4-fluorophenyl)-5-hydroxy-4α-methyl-1,4,4α,5,6,7-hexahydrocyclopenta[r]indazol-5-yl]ethyl}benzamide], for which, under setting [1], the affinity, expressed as Ki, was 0.44 nM.
Same read-out and setting: the figure for `CC(CNC(=O)c1c(F)cccc1CC[C@]1(O)CCC2=Cc3c(cnn3-c3ccc(F)cc3)C[C@@]21C)C(F)(F)F` (stereo partly drawn) [Example 38, 2-fluoro-6-{2-[(4αS,5R)-1-(4-fluorophenyl)-5-hydroxy-4α-methyl-1,4,4α,5,6,7-hexahydrocyclopenta[f]indazol-5-yl]ethyl}-N-(3,3,3-trifluoro-2-methylpropyl)benzamide] is 0.43 nM.
In turn, `C[C@]12Cc3cnn(-c4ccc(F)cc4)c3C=C1CC[C@@]2(O)CCc1ccccc1Cl` [Example 40 WO 2004/075840 A2, reference compound] returned a Ki under setting [2] of 20.7 nM.
The molecule `C[C@]12Cc3cnn(-c4ccc(F)cc4)c3C=C1CC[C@@]2(O)CCc1ccccc1C(=O)N1CCC1` [Example 40, (4αS,5R)-5-{2-[2-(azetidin-1-ylcarbonyl)phenyl]ethyl}-1-(4-fluorophenyl)-4α-methyl-1,4,4α,5,6,7-hexahydrocyclopenta[f]indazol-5-ol] showed a Ki under setting [1] of 6.14 nM.
As to `C[C@]12Cc3cnn(-c4ccc(F)cc4)c3C=C1CCC[C@@]2(O)CCc1ccccc1Cl` [Example 41 WO 2004/075840 A2, reference compound], under setting [2], affinity was put at a Ki of 0.32 nM.
Molecule `COC(=O)C(C)(C)NC(=O)c1c(F)cccc1CC[C@]1(O)CCC2=Cc3c(cnn3-c3ccc(F)cc3)C[C@@]21C` [Example 41, methyl N-(2-fluoro-6-{2-[(4αS,5R)-1-(4-fluorophenyl)-5-hydroxy-4α-methyl-1,4,4α,5,6,7-hexahydrocyclopenta[f]indazol-5-yl]ethyl}benzoyl)-2-methylalaninate] returned a Ki under setting [1] of 0.83 nM.
Same read-out and setting: the figure for `C[C@]12Cc3cnn(-c4ccccc4)c3C=C1CC[C@@]2(O)CCc1ccccc1C(=O)NC1CC1` [Example 42, N-cyclopropyl-2-{2-[(4αS,5R)-5-hydroxy-4α-methyl-1-phenyl-1,4,4α,5,6,7-hexahydrocyclopenta[f]indazol-5-yl]ethyl}benzamide] is 2.79 nM; for `C[C@]12Cc3cnn(-c4ccccc4)c3C=C1CC[C@@]2(O)CCc1ccccc1C(N)=O` [Example 43, 2-{2-[(4αS,5R)-5-hydroxy-4α-methyl-1-phenyl-1,4,4α,5,6,7-hexahydrocyclopenta[f]indazol-5-yl]ethyl}benzamide] it is 5.16 nM; for `C=C(C)CNC(=O)c1c(F)cccc1CC[C@]1(O)CCC2=Cc3c(cnn3-c3ccc(F)cc3)C[C@@]21C` [Example 44, 2-fluoro-6-{2-[(4αS,5R)-1-(4-fluorophenyl)-5-hydroxy-4α-methyl-1,4,4α,5,6,7-hexahydrocyclopenta[f]indazol-5-yl]ethyl}-N-(2-methylprop-2-en-1-yl)benzamide] it is 0.6 nM.
On to `C[C@H](CNC(=O)c1ccccc1CC[C@]1(O)CCC2=Cc3c(cnn3-c3ccc(F)cc3)C[C@@]21C)C(F)(F)F` [Example 45, 2-{2-[(4αS,5R)-1-(4-fluorophenyl)-5-hydroxy-4α-methyl-1,4,4α,5,6,7-hexahydrocyclopenta[f]indazol-5-yl]ethyl}-N-[(2R)-3,3,3-trifluoro-2-methylpropyl]benzamide], for which the inhibition constant Ki under setting [1] worked out at 1.02 nM.
Molecule `C[C@]12Cc3cnn(-c4ccc(F)cc4)c3C=C1CC[C@@]2(O)CCc1ccc(F)cc1` [Example 46 WO 2004/075840 A2, reference compound] gave a Ki under setting [2] of 1 nM.
Take `C[C@]12Cc3cnn(-c4ccc(F)cc4)c3C=C1CC[C@@]2(O)CCc1ccccc1C(=O)N1CCCCC1` [Example 46, (4αS,5R)-1-(4-fluorophenyl)-4α-methyl-5-{2-[2-(piperidin-1-ylcarbonyl)phenyl]ethyl}-1,4,4α,5,6,7-hexahydrocyclopenta[f]indazol-5-ol]: under setting [1], the affinity corresponds to a Ki of 3.02 nM.
Same read-out and setting: the value for `C[C@]12Cc3cnn(-c4ccc(F)cc4)c3C=C1CC[C@@]2(O)CCc1ccccc1C(=O)N1CCCC1` [Example 47, (4αS,5R)-1-(4-fluorophenyl)-4α-methyl-5-{2-[2-(pyrrolidin-1-ylcarbonyl)phenyl]ethyl}-1,4,4α,5,6,7-hexahydrocyclopenta[f]indazol-5-ol] was 11.5 nM.
Under setting [1], `CC(C)[C@@H](C)NC(=O)c1c(F)cccc1CC[C@]1(O)CCC2=Cc3c(cnn3-c3ccc(F)cc3)C[C@@]21C` [Example 48, N-[(1R)-1,2-dimethylpropyl]-2-fluoro-6-{2-[(4αS,5R)-1-(4-fluorophenyl)-5-hydroxy-4α-methyl-1,4,4α,5,6,7-hexahydrocyclopenta[f]indazol-5-yl]ethyl}benzamide] showed a Ki of 1.2 nM.
Still for that read-out and setting: the figure for `CCCNC(=O)c1c(F)cccc1CC[C@]1(O)CCC2=Cc3c(cnn3-c3ccc(F)cc3)C[C@@]21C` [Example 49, 2-fluoro-6-{2-[(4αS,5R)-1-(4-fluorophenyl)-5-hydroxy-4α-methyl-1,4,4α,5,6,7-hexahydrocyclopenta[f]indazol-5-yl]ethyl}-N-propylbenzamide] is 0.81 nM.
On the same count and under the same terms, the value for `CCNC(=O)c1ccccc1CC[C@]1(O)CCC2=Cc3c(cnn3-c3ccc(F)c(F)c3)C[C@@]21C` [Example 51, 2-{2-[(4αS,5R)-1-(3,4-difluorophenyl)-5-hydroxy-4α-methyl-1,4,4α,5,6,7-hexahydrocyclopenta[f]indazol-5-yl]ethyl}-N-ethylbenzamide] was 7.05 nM.
The same measure, in the same setting: the value for `COC(=O)C(C)(C)NC(=O)c1ccccc1CC[C@]1(O)CCC2=Cc3c(cnn3-c3ccc(F)cc3)C[C@@]21C` [Example 52, methyl N-(2-{2-[(4αS,5R)-1-(4-fluorophenyl)-5-hydroxy-4α-methyl-1,4,4α,5,6,7-hexahydrocyclopenta[f]indazol-5-yl]ethyl}benzoyl)-2-methylalaninate] was 0.8 nM.
Take `CC(C)(C)CNC(=O)c1c(F)cccc1CC[C@]1(O)CCC2=Cc3c(cnn3-c3ccc(F)cc3)C[C@@]21C` [Example 55, N-(2,2-dimethylpropyl)-2-fluoro-6-{2-[(4αS,5R)-1-(4-fluorophenyl)-5-hydroxy-4α-methyl-1,4,4α,5,6,7-hexahydrocyclopenta[f]indazol-5-yl]ethyl}benzamide]: the affinity under setting [1] corresponds to a Ki of 0.92 nM.
